In patent US12533349B2, “Drug formulations for reservoir-based delivery” (Medtronic, Inc., priority 2020, dated 2026):

Legend:
Type in all cases: physicochemical
[1] = Hansen Solubility Parameters (HSP) determination; details: Hansen Solubility Parameter
Excerpt: (§1) Without intending to be bound by theory, it is believed that HSP provides a thermodynamic indication of whether a compound will migrate into a component of the reservoir-based delivery device, such as a polymeric component of the reservoir-based delivery device. Greater differences between HSPs of the compound and the component tend to result in lower amounts of migration.
For purposes of the present disclosure, differential HSP values of less than 7 are considered to be of high risk, HSP values between 7 and 10 are considered to be of medium risk, and HSP values of greater than 10 are considered to be of low risk for the drug to migrate into the component of the reservoir-based delivery device. Differential HSP values may be determined as described in Kitak, et al. (2015), “Determination of Solubility Parameters of Ibuprofen and Ibuprofen Lysinate,” Molecules, 20:21549-21568. One useful measurement of differential HSP values is described in Equation (4) of Kitak, et al. on page 21550. Other useful measurements include Equations (5), (6), and (7) of Kitak, et al. on pages 21550-21551.
The HSP of bupivacaine and the drug contacting material (silicone) were determined.

[2] = Differential HSP between drug and drug-contacting material of SynchroMed II infusion device; details: bupivacaine vs drug-contacting material (silicone); less than 7 is considered high risk of migration
Excerpt: as §1
For purposes of the present disclosure, differential HSP values of less than 7 are considered to be of high risk, HSP values between 7 and 10 are considered to be of medium risk, and HSP values of greater than 10 are considered to be of low risk for the drug to migrate into the component of the reservoir-based delivery device. Differential HSP values may be determined as described in Kitak, et al. (2015), “Determination of Solubility Parameters of Ibuprofen and Ibuprofen Lysinate,” Molecules, 20:21549-21568. […]
In the following, non-limiting example development of a bupivacaine formulation for use in a reservoir-based delivery device is shown. The drug delivery device for which compatibility was determined was Medtronic, Inc.'s SynchroMed® II implantable infusion device. […]
The differential HSP value was determined to be 4.2, which is considered to be high risk of the drug migrating into the drug-contacting material.

[3] = Potential for chemical reaction between functional groups of drug and drug-contacting material; details: drug-contacting material silicone
Excerpt: The presence of certain functional groups on the drug or components of the formulation and certain functional groups on drug formulation contacting materials of the reservoir-based delivery devices may result in concern for chemical reaction between one or more ingredients of the formulation and the drug formulation contacting materials.
For example, silyl ether groups which may be present on silicone drug formulation contacting materials may react with amine groups, phosphate groups, or carboxylate groups of ingredients of the drug formulation.
In the following, non-limiting example development of a bupivacaine formulation for use in a reservoir-based delivery device is shown. The drug delivery device for which compatibility was determined was Medtronic, Inc.'s SynchroMed® II implantable infusion device. The material of the component of the SynchroMed® II for which compatibility was tested was silicone. Bupivacaine may migrate into silicone without consideration of formulation.
In addition, it was determined that bupivacaine has a high risk of potential for chemical reaction between functional groups in bupivacaine and the functional groups in the drug-contacting material.

- HSP δD ([1]; δD component): 18.1
- HSP δH ([1]; δH component): 6.03
- HSP δP ([1]; δP component): 6.46
- differential HSP value [2]: 4.2
- risk of potential for chemical reaction between functional groups in bupivacaine and in the drug-contacting material [3]: high risk
Compound: CCCCN1CCCCC1C(=O)Nc1c(C)cccc1C (centres unmarked) [bupivacaine]
